Test results as given in patent US7449462B2, “Triazole derivatives which inhibit vasopressin antagonistic activity” (Pfizer, Inc., priority 2004, dated 2008).

Biological target: T1, human V1A receptor (Homo sapiens, UniProt P37288)
T1 construct: expressed in transfected cells; host or cells: CHO cells (CHO-hV1A line provided by Marc Thibonnier, Case Western Reserve University)
Assay: V1A filter binding assay (screen 1.0), [3H]-AVP binding to CHO-hV1A membranes
Settings: [3H]-AVP displacement, membranes of CHO cells stably expressing the human V1A receptor; Cheng-Prusoff
Method: 1.0 V1A Filter Binding Assay
Receptor binding assays were performed on cellular membranes prepared from CHO cells stably expressing the human V1A receptor, (CHO-hV1A). The CHO-hV1A cell line was kindly provided under a licensing agreement by Marc Thibonnier, Dept. of Medicine, Case Western Reserve University School of Medicine, Cleveland, Ohio. CHO-hV1A cells were routinely maintained at 37° C. in humidified atmosphere with 5% CO2 in DMEM/Hams F12 nutrient mix supplemented with 10% fetal bovine serum, 2 mM L-glutamine, 15 mM HEPES and 400 μg/ml G418. […] Confluent CHO-hV1A cells were washed with phosphate-buffered saline (PBS), harvested into ice cold PBS and centrifuged at 1,000 rpm. Cell pellets were stored at −80° C. until use. Cell pellets were thawed on ice and homogenised in membrane preparation buffer consisting of 50 mM Tris-HCl, pH 7.4, 5 mM MgCl2 and supplemented with a protease inhibitor cocktail, (Roche). […] The remaining pellet was homogenised and centrifuged as before. The supernatants were pooled and centrifuged at 25,000×g for 30 min at 4° C. The pellet was resuspended in freezing buffer consisting of 50 mM Tris-HCl, pH 7.4, 5 mM MgCl2 and 20% glycerol and stored in small aliquots at −80° C. until use. Protein concentration was determined using Bradford reagent and BSA as a standard. […]
Compounds were tested for their effects on [^3H]-AVP binding to CHO-hV1A membranes, (^3H-AVP; specific activity 65.5 Ci/mmol; NEN Life Sciences). […] The plates were sealed and counted on a TopCount Microplate Scintillation Counter (Packard Instruments). […] The radioligand binding data was analysed using a four parameter logistic equation with the min forced to 0%. […] Specific binding was calculated by subtracting the mean NSB cpm from the mean Total cpm. […] The inhibitory dissociation constant (Ki) was calculated using the Cheng-Prusoff equation: Ki=IC50/(1+[L]/Kd) where [L] is the concentration of ligand present in the well and Kd is the dissociation constant of the radioligand obtained from Scatchard plot analysis.

T1 sequence (P37288 whole entry): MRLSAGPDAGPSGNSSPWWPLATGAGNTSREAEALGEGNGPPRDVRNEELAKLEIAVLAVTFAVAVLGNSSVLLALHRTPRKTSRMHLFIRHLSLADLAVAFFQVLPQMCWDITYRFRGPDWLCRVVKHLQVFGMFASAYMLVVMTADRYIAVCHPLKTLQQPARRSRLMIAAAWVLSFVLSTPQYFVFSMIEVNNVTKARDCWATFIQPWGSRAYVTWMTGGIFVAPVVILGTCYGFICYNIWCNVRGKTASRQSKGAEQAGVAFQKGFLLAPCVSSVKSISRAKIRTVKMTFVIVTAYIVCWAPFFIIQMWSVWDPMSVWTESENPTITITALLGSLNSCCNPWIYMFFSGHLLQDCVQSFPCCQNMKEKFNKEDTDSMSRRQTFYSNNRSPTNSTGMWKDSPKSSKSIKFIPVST

| Ki [pM] | Structure (SMILES) |
| --- | --- |
| 3320 | Cc1cc(Cl)ccc1-n1c(C)nnc1C1CCN(c2ccccn2)CC1 [Example 9, 4-[4-(4-Chloro-2-methyl-phenyl)-5-methyl-4H-[1,2,4]triazol-3-yl]-3,4,5,6-tetrahydro-2H-[1,2′]bipyridinyl] |
| 860 | Cc1cc(Cl)ccc1-n1c(Cn2nccn2)nnc1C1CCN(c2ccccn2)CC1 [Example 15, 4-[4-(4-Chloro-2-methyl-phenyl)-5-[1,2,3]triazol-2-ylmethyl-4H-[1,2,4]triazol-3-yl]-3,4,5,6-tetrahydro-2H-[1,2′]bipyridinyl] |
| 470 | Clc1ccc(-n2c(Cn3nccn3)nnc2C2CCN(c3ccccn3)CC2)cc1 [Example 17, 4-[4-(4-Chloro-phenyl)-5-[1,2,3]triazol-2-ylmethyl-4H-[1,2,4]triazol-3-yl]-3,4,5,6-tetrahydro-2H-[1,2′]bipyridinyl] |
